Reference: patent US7390836B2, “Small molecules used to increase cell death” (priority 1999, dated 2008)

Assays:
Assay type in all cases: cell-based
[1] = tested on: HeLa cells, Jurkat cells; assay: Cytochrome c release and mitochondrial membrane potential; settings: immunostaining and fractionation, 48 hr
Method: FIG. 6D is a set of images of cells showing cytochrome c release induced by BH3Is. HeLa cells were treated with 100 μM BH3I-1 for 48 hr and were then stained with Hoechst (a) or cytochrome c antibody (b). The arrows indicate the position of an apoptotic cell.
FIG. 6E is an image of a Western blot analysis of cytochrome c release from Jurkat cells treated with BH3I-1 (100 μM) or BH3I-2 (50 μM) for 48 hr. Cells were fractionated and soluble (S) and heavy membrane (M) fractions were subjected to Western blot analysis using cytochrome c (Pharmingen) and VDAC (Calbiochem) antibodies.
Next, the role of BH3 Is in inducing the release of cytochrome c from mitochondria was examined.

[2] = tested on: Jurkat/Bcl-xL cells; assay: Cell death in Bcl-xL overexpressing Jurkat cells (MTS, PI, sub-G1, FAM-VAD-fmk); settings: for sub-G1 DNA: 100 μM BH3I-1 or 30 μM BH3I-2; for dose at which Bcl-xL overexpression gave no protection / doses from which Bcl-xL overexpression provided protection: 48 hr, MTS or PI
Method: If BH3Is act through inhibiting the function of anti-apoptotic members of Bcl-2 family, overexpression of Bcl-xL should provide protection against BH3Is, which can be overcome by increased amount of BH3Is. Furthermore, Bcl-xL overexpressing cells. should still undergo apoptosis when treated with a high enough dose of a BH3I to overcome the protection by Bcl-xL. To test this theory, Jurkat/Bcl-xL cells were treated with BH3I-1 and BH3I-2 for 48 hr. Cell death was determined using the MTS assay (FIG. 9A) or PI staining (FIG. 9B). Overexpression of Bcl-xL provided protection for Jurkat cells from lower doses of BH3Is (up to 40 μM of BH3I-2 and up to 100 μM of BH3I-1). Overexpression of Bcl-xL, however, gave no protection after treatment with 80 μM of BH3I-2 or 200 μM of BH3I-1. […] Caspases were activated in Hoechst-positive dying cells following treatment with high doses of BH3Is.

[3] = tested on: FL5.12/Bcl-xL cells; assay: Cell death upon IL-3 deprivation in Bcl-xL overexpressing cells; settings: PI staining
Excerpt: This effect could be overcome by a higher dose of BH3Is (FIG. 9E). Inactivation of Bcl-xL by BH3Is in FL5.12/Bcl-xL cells was detected as an increase in cell death following IL-3 deprivation.

[4] = tested on: Jurkat cells; assay: Apoptosis in Jurkat cells (TUNEL, sub-G1 DNA, Annexin V); settings: BH3I-1 100 μM, BH3I-2 30 μM; for TUNEL staining: 48 hr; for sub-G1 DNA content: 72 hr, PI, FACS
Method: FIG. 6C is a series of FACS analysis graphs showing Annexin V staining of Jurkat cells. Jurkat cells were treated with BH3I-1 (100 μM) or BH3I-2 (30 μM) and were stained 4 or 6 hr later with Annexin V-EGFP/PI. The relative amounts of live, apoptotic, and late apoptotic/necrotic cells are shown.
To further examine the ability of BH3Is to induce apoptosis, Jurkat cells were treated with BH3I-1 (100 μM) (FIG. 6A, panels a and b), BH3I-2 (30 μM) (FIG. 6A, panels c and d) or DMSO (FIG. 6A, panels e and f) for 48 hr. The cells were then stained using Hoechst dye and a FragEL TUNEL kit (Oncogene Research Products). […] This was determined by treating Jurkat cells with BH3I-1 (100 μM) or BH3I-2 (30 μM), fixing them 72 hr later, and staining them with propidium iodide (PI). The samples were analyzed by FACS. Finally, BH3Is induced the appearance of Annexin V binding without an increase in PI staining (FIG. 6C).

[5] = tested on: HeLa cells; assay: Cell death by ATP levels after zVAD-fmk pretreatment; settings: zVAD-fmk 100 μM pretreatment, 48 or 72 hours
Method: The conditions under which cell death occurs in the presence of BH3Is were further evaluated. HeLa cells were pretreated with zVAD-fmk (100 μM) for 1 hour. The purpose of such a treatment was to inhibit the intracellular pathways mediating cell death by apoptosis. Each of the chemical compounds BH3I-1, BH3I-1′, or BH3I-2 was then added to the media of the cells of three separate samples. After 48 or 72 hours of exposure of the cells to zVAD-fmk and the chemical compound, the level of cell death was measured for each sample, by measuring cellular ATP levels.

[6] = tested on: HeLa cells; assay: Cell death by cellular ATP levels; settings: 48 hours
Method: (§1) HeLa cells, U-937 cells, or Jurkat cells, each of which endogenously express both Bak and Bcl-xL, were contacted with each of the BH3I chemical compounds identified above, by adding the compound to the cell culture media. Forty-eight hours after the cells received the chemical compound the cell culture sample was evaluated for the level of cell death that had occurred in response to the chemical compound. The level of cell death was determined by measuring cellular ATP levels, wherein a decrease in cellular ATP levels indicated an increase in cell death. In each cell line, cell death was increased in the sample that received one of the above-identified compounds.

[7] = tested on: U-937 cells; assay: Cell death by cellular ATP levels; settings: 48 hours
Method: as §1

[8] = tested on: Jurkat cells; assay: Cell death by cellular ATP levels; settings: 48 hours
Method: as §1

Row | Compound | cytochrome c release [1] | sub-G1 DNA [2] | dose at which Bcl-xL overexpression gave no protection [2] | doses from which Bcl-xL overexpression provided protection [2] | cytotoxicity upon IL-3 deprivation [3] | TUNEL staining [4] | sub-G1 DNA content [4] | cellular ATP levels [5] | GI50 [6] | GI50 [7] | GI50 [8]
1 | CC(C)C(C(=O)O)N1C(=O)C(=Cc2ccc(Br)cc2)SC1=S (stereo in doubt) [BH3I-1] | induced cytochrome c release | induced the appearance of sub-GI DNA | 200 µM | up to 100 μM | significantly increased upon IL-3 deprivation | TUNEL positivity | displayed sub-G1 DNA content | cellular ATP levels decreased | – | – | –
2 | O=C(Nc1cc(S(=O)(=O)c2ccc(Cl)cc2)ccc1Cl)c1cc(Cl)cc(Br)c1O [BH3I-2] | induced cytochrome c release | induced the appearance of sub-GI DNA | 80 µM | up to 40 μM | significantly increased upon IL-3 deprivation | TUNEL positivity | displayed sub-G1 DNA content | cellular ATP levels decreased | 10 to 15 µM | 10 to 15 µM | 10 to 15 µM
